Test results from publication PMC8347307, “Preclinical Bioavailability, Tissue Distribution, and Protein Binding Studies of Erinacine A, a Bioactive Compound from Hericium erinaceus Mycelia Using Validated LC-MS/MS Method” (Molecules, 2021).
Where “and” joins values, the source holds several entries; their conditions need not be identical. Identical values can stand only once. Like-named read-outs stand apart in the source and are kept apart here.

Tests used:
[1] = Pharmacokinetic study, erinacine A in rat plasma after oral and intravenous administration; type: in vivo, Sprague-Dawley rats
Procedure: Analysis of erinacine A concentration in samples was conducted by Agilent 1100 series HPLC system (Agilent, Waldbronn, Germany) equipped with a G1376A capillary pump and a G1313A autosampler. Chromatographic separation was carried out in an Agilent Eclipse XDB-C18 column (3.5 µm, 4.6 × 100 mm) at 25 °C. The mobile phase consists of water (A) and acetonitrile (B) with gradient elution program as follows: 0 min, 70% B; 0–5 min, 70–100% B; 5–8 min, 100% B; 8–8.1 min, 100–70% B; 8.1–11 min, 70% B. The flow rate was 0.35 mL/min and injection volume was 10 μL. Mass spectrometric detection was conducted on an API 3000 triple quadrupole instrument (Applied Biosystems, Vaughan, ON, Canada) in multiple reaction monitoring (MRM) mode with parameters as follows: nebulizer gas, 10 psi; collision gas, 2 psi; curtain gas, 7 psi; source voltage, 4.5 kV; source temperature, 275 °C. A turbo ionspray electrospray ionization (ESI) interface in positive ionization mode was used (Applied Biosystem, Foster City, CA, USA). The specific precursor to product ion transitions is [M+H] 433 → 301 for erinacine A and 197 → 169 for 2,4,5-TMBA (internal standard). Data analysis was performed with Analyst 1.4.2 software (Applied Biosystems, Concord, ON, Canada).
Before intravenous administration, animals were anesthetized with Avertin (2,2,2-Tribromoethanol, 0.071 M). Blood was collected into heparinized microtubes at scheduled time points and centrifuged at 2404× g for 10 min. The plasma (100 μL) was then mixed with equal volume of internal standard 2,4,5-TMBA (final concentration 25 ng/mL) and 300 μL of ethyl acetate. The mixture was vortexed and centrifuged at 13,845× g for 3 min. The supernatant was removed and the residue was reconstituted with isovolumetric acetonitrile for LC-MS/MS analysis. All animal procedures were approved by the Animal Care and Use Committee of Shih Chien University (IACUC#10405).
All experimental data were presented as mean ± standard deviation (mean ± SD). Maximal plasma concentration (Cmax), and time taken to achieve maximal plasma concentration (Tmax), half-life (T1/2), and area under the plasma concentration − time curve (AUC) were assessed on each animal using the software of WinNonlin (Pharsight Corp., Mountain View, CA, USA) by the non-compartmental model. Applying the pharmacokinetic data of oral administration (po) and intravenous administration (iv), the absolute bioavailability of erinacine A was calculated as [(AUCpo × Doseiv)/(AUCiv × Dosepo)] × 100%.

[2] = system: transient focal cerebral ischemia; parameters: method as in PMID 25167134; conditions: rat, intraperitoneal 1 mg/kg during the 5 days before onset of ischemia; cited from earlier work
[3] = system: diluted (4×) tissue homogenates; test: Protein binding in diluted (4×) tissue homogenates by rapid equilibrium dialysis; type: in vitro ADME, Sprague-Dawley rats; conditions: calculated from protein binding assay with equation of ref 36
Procedure: (§1) Then, the protein binding of erinacine A in the plasma and diluted (4×) tissue homogenates (brain, heart, lung, liver, kidney, stomach, large intestine, and small intestine) was determined by rapid equilibrium dialysis devices with 8000 Da molecular weight cut-off (#89809, Thermo Fisher Scientific, Waltham, MA, USA) according to manufacturer’s guidelines. In brief, the stock solution of erinacine A prepared in methanol was spiked into blank plasma and tissues to yield a final concentration of 200 ng/mL. Two hundred microliter aliquot of spiked samples were then dialysed against 350 µL aliquot of isotonic phosphate buffered saline at 37 °C on an orbital shaker at 250 rpm for 4 h. The resulting sample and buffer dialysates were removed from the chambers, matched with an equal volume of opposite blank matrix, and analyzed by LC-MS/MS. The protein binding of erinacine A is determined by the following Equations (1) and (2):% Free = (concentration at buffer chamber/concentration at sample chamber) × 100%(1) % Bound = 100% − % Free(2)

[4] = as above; type: in vitro ADME, Sprague-Dawley rats; conditions: Sprague-Dawley, rat, 200 ng/mL, 37 °C, 4 h
Procedure: as §1

[5] = Stability in plasma and tissues at 37 °C for 4 h; type: in vitro ADME, Sprague-Dawley rats; conditions: data not shown
[6] = system: nerve growth factor (NGF); parameters: method as in doi:10.1016/S0040-4039(00)76760-8; conditions: in vitro; cited from earlier work
[7] = system: nerve growth factor (NGF); parameters: method as in doi:10.1016/j.nutres.2005.06.001; conditions: rats, 8 mg/kg BW for 5 weeks from birth; cited from earlier work
[8] = system: insoluble β amyloid and C-terminal fragment of amyloid precursor protein; parameters: method as in PMID 29463001; conditions: cited from earlier work
[9] = rat, in vivo, iv, 5 mg/kg
[10] = Tissue distribution study after single oral administration; type: in vivo, Sprague-Dawley rats; conditions: for Tmax / concentration at 4 h: Sprague-Dawley, rat
Procedure: (§2) The homogenates (100 μL) were then mixed with equal volume of internal standard 2,4,5-TMBA (final concentration 25 ng/mL) and 300 μL of ethyl acetate. The mixture was vortexed and centrifuged at 13,845× g for 3 min. The supernatant was removed and the residue was reconstituted with isovolumetric acetonitrile for LC-MS/MS analysis.

[11] = system: DLD-1 colorectal adenocarcinoma cells; parameters: method as in doi:10.1016/j.jff.2015.12.031, PMID 31680958; conditions: in vitro; cited from earlier work
[12] = Excretion study, feces and urine, after single oral administration; type: in vivo, Sprague-Dawley rats
Procedure: as §2, with “[…] Feces” for “The homogenates (100 μL)”, “freeze-dried and grinded before mixing with equal volume of internal standard 2,4,5-TMBA (final concentration 25 ng/mL) and 300 μL of ethyl acetate. Urines were” for “then”

rat plasma = test: Protein binding in plasma by rapid equilibrium dialysis; type: in vitro ADME, Sprague-Dawley rats
Procedure: as §1

DLD-1 xenografts = system: DLD-1 xenografts; parameters: method as in doi:10.1016/j.jff.2015.12.031, PMID 31680958; conditions: nude mice; cited from earlier work
[13] = parameters: method as in PMID 31022946; conditions: rats, cited from earlier work
[14] = male, Sprague-Dawley, iv, rat plasma, I.V. erinacine A 5 mg/kg
[15] = male, Sprague-Dawley, po, rat plasma, P.O. mycelia extract 2.381 g/kg BW (equivalent to 50 mg/kg erinacine A)
[16] = 0–4 h after oral mycelia extract 2.381 g/kg BW
[17] = collected for 24 h, comparison with ref 22
[18] = unchanged erinacine A, cumulative
[19] = oral mycelia powder equivalent to 50 mg/kg BW erinacine S

With `CC(C)C1=C2C3=CC=C(C=O)C[C@H](O[C@@H]4OC[C@@H](O)[C@H](O)[C@H]4O)[C@]3(C)CC[C@@]2(C)CC1` [erinacine A] the AUC [1, 14] was 3120 ng·h/mL, the Cmax [1, 14] was 4530 ± 3420 ng/mL and the half-life [1, 14] was 0.0728 ± 0.0758 h. For the same molecule, the Tmax ([1]; male, Sprague-Dawley, po, rat plasma, P.O. H. erinaceus mycelia extract 2.381 g/kg BW (equivalent to 50 mg/kg BW erinacine A), n = 6) was 6 h, the AUC [1, 15] was 7620 ng·h/mL and the Cmax [1, 15] was 1400 ± 1140 ng/mL. For the same molecule, the half-life [1, 15] was 8.19 ± 1.86 h, the concentration at 90 min ([1]; male, Sprague-Dawley, rat, plasma, 2.381 g/kg, oral, at 90 min, read-out: Plasma concentration, first peak) was 640 ng/mL and the concentration at 150 min ([1]; male, Sprague-Dawley, rat, plasma, 2.381 g/kg, oral, at 150 min, read-out: Plasma concentration, second peak) was 735 ng/mL. For the same molecule, the concentration at 360 min ([1]; male, Sprague-Dawley, rat, plasma, 2.381 g/kg, oral, at 360 min, read-out: Plasma concentration, third peak) was 1250 ng/mL, the bioavailability ([1]; male, Sprague-Dawley, rat, plasma, rats, [(AUCpo × Doseiv)/(AUCiv × Dosepo)] × 100%, po 50 mg/kg equivalent, iv 5 mg/kg, read-out: Absolute Bioavailability) was 24.4% and the “Earliest detection in plasma after oral administration” value ([1]; oral mycelia powder equivalent to 50 mg/kg BW erinacine A) was 1 min. For the same molecule, the “Levels of acute inflammatory cytokines and ischemia-injury-induced neuronal cell death” value [2] was “significantly reduced”, the “Unbound brain-to-plasma concentration ratio” value [3] was “close to unity” and the fraction unbound at 4 h, 200 ng/mL ([4]; diluted (4×) brain homogenate, brain homogenate, highest, read-out: Binding with the brain (% bound) (converted)) was 0.711. The fraction unbound at 4 h, 200 ng/mL ([4]; diluted (4×) stomach homogenate, stomach homogenate, lowest, read-out: Binding with the stomach (% bound) (converted)) was 0.883, the “Stability in plasma and tissues” value [5] was “no degradation was observed” and the “Nerve growth factor (NGF) stimulation” value [6] was “stimulated nerve growth factor (NGF) in vitro”. For the same molecule, the “NGF content in hippocampus and locus coeruleus” value [7] was “increased NGF content”, the “Reduction of insoluble β amyloid and C-terminal fragment of amyloid precursor protein” value [8] was “could reduce” and the Toxicity signs [9] was “no toxicity signs were observed”. The Tmax ([10]; brain, oral mycelia extract 2.381 g/kg BW, read-out: Time of peak concentration in brain) was 8 h, the concentration at 4 h ([10]; heart, 4 h after oral mycelia extract 2.381 g/kg BW, read-out: Concentration in heart) was 1110 ± 264 ng/g and the concentration at 4 h ([10]; kidney, 4 h after oral mycelia extract 2.381 g/kg BW, read-out: Concentration in kidney) was 1280 ± 438 ng/g. The concentration at 4 h ([10]; large intestine, 4 h after oral mycelia extract 2.381 g/kg BW, read-out: Concentration in large intestine) was 726 ± 336 ng/g, the concentration at 4 h ([10]; liver, 4 h after oral mycelia extract 2.381 g/kg BW, read-out: Concentration in liver) was 2830 ± 641 ng/g and the concentration at 4 h ([10]; lung, 4 h after oral mycelia extract 2.381 g/kg BW, read-out: Concentration in lung) was 1180 ± 339 ng/g. For the same molecule, the concentration at 4 h ([10]; small intestine, 4 h after oral mycelia extract 2.381 g/kg BW, read-out: Concentration in small intestine) was 25400 ± 20400 ng/g, the concentration at 4 h ([10]; stomach, 4 h after oral mycelia extract 2.381 g/kg BW (50 mg/kg erinacine A), read-out: Concentration in stomach) was 56500 ± 27600 ng/g and the Tmax ([10]; oral mycelia extract 2.381 g/kg BW, read-out: Time of peak concentration in stomach, small intestine, large intestine, liver, heart, lung and kidney) was 4 h. The “Maximum concentration in brain” value ([10]; eight hours after oral mycelia extract 2.381 g/kg BW) was 0.205 ± 0.079 µg/g, the “Detectability in tissues at the end of 24 h” value ([10]; oral mycelia extract 2.381 g/kg BW) was “still detectable in GI tract, heart, and liver” and the Blood-brain barrier penetration ([10]; rats, oral mycelia extract) was “can penetrate the blood-brain barrier of rats by the means of passive diffusion”. For the same molecule, the “Proliferation of DLD-1 cells” value [11] was “inhibited the proliferation”, the “Feces Concentration” value [12, 16] was 1.533 ± 2.625 µg/g and the “Urine Concentration” value [12, 16] was 0.248 µg/mL and 0.248 ± 0.210 µg/mL. For the same molecule, the “Feces Concentration” value ([12]; 4–8 h) was 81.853 ± 99.919 µg/g, the “Urine Concentration” value ([12]; 4–8 h) was 0.118 ± 0.103 µg/mL and the “Feces Concentration” value ([12]; 8–12 h) was 271.237 µg/g and 271.237 ± 404.357 µg/g. The “Urine Concentration” value ([12]; 8–12 h) was 0.059 ± 0.043 µg/mL, the “Feces Concentration” value ([12]; 12–24 h) was 122.824 ± 198.611 µg/g and the “Urine Concentration” value ([12]; 12–24 h) was 0.055 ± 0.066 µg/mL. The “Feces Concentration” value ([12]; 24–36 h) was 4.475 ± 6.477 µg/g, the “Urine Concentration” value ([12]; 24–36 h) was 0.021 ± 0.037 µg/mL and the “Feces Concentration” value ([12]; 36–48 h) was 0.062 ± 0.099 µg/g. For the same molecule, the “Urine Concentration” value ([12]; 36–48 h) was 0.016 ± 0.018 µg/mL, the “Total amount of unchanged compound in feces relative to erinacine S” value [12, 17] was “more than 20 times” and the “Total amount of unchanged compound in urine relative to erinacine S” value [12, 17] was over 2 times. The “Cumulative fecal excretion, % of administered dose” value ([12]; unchanged erinacine A) was 2.823%, the “Cumulative urinary excretion, % of administered dose” value ([12]; unchanged erinacine A) was 0.017% and the “Total Amount excreted in feces” value [12, 18] was 428.379 ± 368.502 µg. For the same molecule, the “Total Amount excreted in urine” value [12, 18] was 2.604 ± 2.149 µg, the “Percent free in plasma” value (rat plasma; 200 ng/mL, 37 °C, 4 h equilibrium dialysis, n = 3) was 84.00 ± 2.01% and the “Nonspecific binding with the plasma or tissues” value (rat plasma; 37 °C up to 4 h, preliminary study, data not shown) was “negligible”. For the same molecule, the “Growth of DLD-1 xenografts” value (DLD-1 xenografts) was “inhibited”.

For `CC(C)C1=C2[C@H]3CCC4=C(O)C(=O)[C@@]5(O)CO[C@H]6O[C@@H]([C@@H]4[C@]65O)[C@]3(C)CC[C@@]2(C)CC1` [erinacine S], the “Reduction of insoluble β amyloid and C-terminal fragment of amyloid precursor protein” value [8] is given as “not”, the Maximum plasma concentration [13, 19] is given as 0.73 µg/mL and the “Time to reach maximum plasma concentration” value [13, 19] is given as 270.00 min. The Absolute bioavailability [13] was 15.13%.
